# Laboratory results published in patent US20170298402A1, “SELF-LABELING NUCLEIC ACIDS AND METHODS OF USE” (President and Fellows of Harvard College, priority 2014, published 2017).
# System: post-round 6 RNA pool
# Experiment: Streptavidin gel mobility shift of post-round 6 RNA pool with each electrophilic probe
# Type: biochemical
# Details: streptavidin incubation and gel mobility shift
# Experimental: The reaction between small-molecule probe(s) and the RNA pool was performed as follows: the RNA pool (1 μM) in buffer containing 150 mM NaCl, 25 mM Na-HEPES, pH 7.4, was heated at 65° C. for 5 minutes, then allowed to cool for an additional 5 minutes. MgCl2 (10 mM) was then added for a total volume of 45 μL and the solution incubated for 10 minutes, followed by addition of 1.3 mM of the biotinylated small-molecule probe in DMSO. After incubation for the desired time, the RNA was precipitated by the addition of 5 μL of 3 M NaOAc and 180 μL of EtOH.
# The pellet resulting from EtOH precipitation of a reaction of RNA (750 ng) with a small-molecule probe was resuspended in 21 μL H2O. The RNA (7 μL) and streptavidin (NEB; 1 μg) were incubated at room temperature for 25 minutes and then combined with gel electrophoresis loading buffer. The sample was electrophoresed on a 10% PAGE denaturing gel (240 V, 35 minutes) and visualized following incubation with SYBR Green II (Life Technologies).
# To identify the electrophile(s) that reacted with the enriched RNA, we performed one additional round of in vitro selection and then incubated the resulting post-round 6 RNA pool with each of the eight electrophilic probes.
compound,measurement,value
CC1O[C@H]1CCCOCCOC(=O)CCCCC1SCC2NC(=O)NC21 (stereo partly shown) [probe 1],reaction with the post-round 6 RNA pool,reacted
